Reference: patent US20200016136A1 (VIIV HEALTHCARE UK (NO. 5) LIMITED, priority 2017, published 2020)

Test system: NL-RLuc virus (recombinant NL4-3 HIV with Renilla Luciferase gene)
Test: Inhibition of HIV replication (NL-RLuc virus in MT-2 cells, luciferase readout)
Format: cell-based, Human immunodeficiency virus (HIV)
Details: MT2, 120 h
Procedure, shortened: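 EC50 derived via median effect equation from at least 2 experiments, using luciferase expression as virus-growth readout. Replication-competent NL-RLuc reporter virus (nef partly replaced by Renilla luciferase) infected MT-2 cells with serial compound dilutions; 5-day incubation in RPMI 1640 plus 10% FBS.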

Row | SMILES | EC50
1 | Cc1nc(C)c([C@H](OC(C)(C)C)C(=O)O)c(N2CCC(C)(C)CC2)c1-c1ccc2c(c1)CCN(c1cc(N3C[C@@H](C)O[C@@H](C)C3)ncn1)C2 [Example 130, (S)-2-(tert-Butoxy)-2-(5-(2-(6-((2S,6R)-2,6-dimethylmorpholino)pyrimidin-4-yl)-1,2,3,4-tetrahydroisoquinolin-6-yl)-4-(4,4-dimethylpiperidin-1-yl)-2,6-dimethylpyridin-3-yl)acetic Acid] | 5 nM
2 | Cc1nc(C)c([C@H](OC(C)(C)C)C(=O)O)c(N2CCC(C)(C)CC2)c1-c1ccc2c(c1)CCN(c1nccc(-c3cnccn3)n1)C2 [Example 108, (S)-2-(tert-Butoxy)-2-(4-(4,4-dimethylpiperidin-1-yl)-2,6-dimethyl-5-(2-(4-(pyrazin-2-yl)pyrimidin-2-yl)-1,2,3,4-tetrahydroisoquinolin-6-yl)pyridin-3-yl)acetic Acid] | 2 nM
3 | Cc1nc(C)c([C@H](OC(C)(C)C)C(=O)O)c(N2CCC(C)(C)CC2)c1-c1ccc2c(c1)CCN(c1ncnc(N3CCOCC3)n1)C2 [Example 60, (S)-2-(tert-Butoxy)-2-(4-(4,4-dimethylpiperidin-1-yl)-2,6-dimethyl-5-(2-(4-morpholino-1,3,5-triazin-2-yl)-1,2,3,4-tetrahydroisoquinolin-6-yl)pyridin-3-yl)acetic Acid] | 0.6 nM
4 | Cc1cccc(Cl)c1CN1CCc2cc(-c3c(NCCN(C)C)nc(C)c([C@H](OC(C)(C)C)C(=O)O)c3N3CCC(C)(C)CC3)ccc2C1 [Example 3, (S)-2-(tert-Butoxy)-2-(5-(2-(2-chloro-6-methylbenzyl)-1,2,3,4-tetrahydroisoquinolin-6-yl)-6-((2-(dimethylamino)ethyl)amino)-4-(4,4-dimethylpiperidin-1-yl)-2-methylpyridin-3-yl)acetic Acid] | 5 nM
5 | Cc1cccc(Cl)c1CN1CCc2cc(-c3c(NCCCN4CCN(C)CC4)nc(C)c([C@H](OC(C)(C)C)C(=O)O)c3N3CCC(C)(C)CC3)ccc2C1 [Example 11] | 2 nM
6 | Cc1nc(C)c([C@H](OC(C)(C)C)C(=O)O)c(N2CCC(C)(C)CC2)c1-c1ccc2c(c1)CCN(c1nccc(N3CCC4(CCC4)CC3)n1)C2 [Example 25, (2S)-2-{5-[2-(4-{7-Azaspiro[3.5]nonan-7-yl}pyrimidin-2-yl)-1,2,3,4-tetrahydroisoquinolin-6-yl]-4-(4,4-dimethylpiperidin-1-yl)-2,6-dimethylpyridin-3-yl}-2-(tert-butoxy)acetic Acid] | 5 nM
7 | Cc1nc(C)c([C@H](OC(C)(C)C)C(=O)O)c(N2CCC(C)(C)CC2)c1-c1ccc2c(c1)CCN(c1ccnc(N3CCC(F)(F)CC3)n1)C2 [Example 76, (S)-2-(tert-Butoxy)-2-(5-(2-(2-(4,4-difluoropiperidin-1-yl)pyrimidin-4-yl)-1,2,3,4-tetrahydroisoquinolin-6-yl)-4-(4,4-dimethylpiperidin-1-yl)-2,6-dimethylpyridin-3-yl)acetic Acid] | 3 nM
8 | Cc1nc(C)c([C@H](OC(C)(C)C)C(=O)O)c(N2CCC(C)(C)CC2)c1-c1ccc2c(c1)CCN(c1cc(-c3cccc(Cl)c3)ncn1)C2 [Example 82, (S)-2-(tert-Butoxy)-2-(5-(2-(6-(3-chlorophenyl)pyrimidin-4-yl)-1,2,3,4-tetrahydroisoquinolin-6-yl)-4-(4,4-dimethylpiperidin-1-yl)-2,6-dimethylpyridin-3-yl)acetic Acid] | 15 nM
9 | CCC(C)(C)O[C@H](C(=O)O)c1c(C)ncc(-c2ccc3c(c2)CCN(Cc2ccc(F)cc2C)C3)c1N1CCC(C)(C)CC1 [Example 54, (2S)-2-[4-(4,4-Dimethylpiperidin-1-yl)-5-{2-[(4-fluoro-2-methylphenyl)methyl]-1,2,3,4-tetrahydroisoquinolin-6-yl}-2-methylpyridin-3-yl]-2-[(2-methylbutan-2-yl)oxy]acetic Acid] | 12 nM
